Data reported in publication PMC7767381, “Exploring the Anti-Cancer Mechanism of Novel 3,4′-Substituted Diaryl Guanidinium Derivatives” (Pharmaceuticals, 2020).
“Also recorded” adds a separate entry of the source.

Tested on: ERK phosphorylation (MAPK/ERK pathway)
Test: Western immunoblot of ERK phosphorylation in HL-60 extracts
Format: cell-based, human
Details: HL-60, 5 µM, 16 h
Method: Thus, using Western immunoblot analysis of HL-60 extracts, we investigated the expression and phosphorylation levels of ERK (as an indication of ERK activation), which is the downstream effector of the Ras/BRAF signalling pathway (Figure 6).
HL60s were seeded in T25 flasks at 50 × 10^4 cells/mL and cells were treated with either vehicle [0.5% EtOH (v/v)], 1–4, 9 or 52 (5 µM), as well as 1 (10 µM as reported). After 16 h, cells were collected and washed with PBS. Cell pellets were re-suspended in cold cell lysis buffer (radio-immunoprecipitation assay buffer) supplemented with 1% phosphatase inhibitor cocktail 2 and 3 (Sigma) and 10% protease inhibitor (Roche). Cells were lysed for 30 min on ice. Protein concentration was then determined by BCA assay. Lysates were boiled with Laemmli sample buffer [Tris-HCL 50 mM (pH 6.7), glycerol 10% (w/v), sodium dodecyl sulphate 2% (w/v), bromophenol blue 0.02% (w/v)] containing DTT […] for 10 min at 90 °C. Moreover, 20 µg of lysates were resolved by sodium dodecyl sulphate polyacrylamide gel electrophoresis (SDS-PAGE) and transferred onto PVDF transfer membrane (EMD Millipore). Membranes were blocked with 5% non-fat milk and probed with primary antibodies for ERK and phospho-ERK (Cell Signalling). Anti-GAPDH was used as a loading control (Calbiochem).
Figure 6 Western immunoblot of HL-60 cell extracts following incubation with compounds 2, 3, 4, 9, 52 and 1 (as a control). HL60 cells were seeded at 2 × 10^5 cells/mL and were treated with either vehicle [0.5% EtOH (v/v)], compounds 52, 2, 9, 3 and 4 (5 µM) or compound 1 (5 and (*) 10 µM, as in reference) for 16 h. Cells were lysed and equal amounts of protein were loaded and separated on 15% SDS-PAGE gels, transferred to PVDF membrane and probed with antibodies against total and phosphorylated ERK. Anti-GAPDH was used as a loading control. Results are representative of 2 independent experiments.
HL-60 cells were seeded in T25 flasks at 50 x10^4 cells/mL and treated with either vehicle [0.5% […]
After 16 hours, cells were […]
collected and washed with PBS. Cell pellets were re-suspended in cold cell lysis buffer (radio-immunoprecipitation assay buffer) supplemented with 1% phosphatase inhibitor cocktail 2 and 3 (Sigma) and 10% protease inhibitor (Roche). Cells were lysed for 30 minutes on ice.
Protein concentration was then determined by BCA assay. Lysates were boiled with laemmli sample buffer [Tris-HCL 50 mM (pH 6.7), glycerol 10% (w/v), sodium dodecyl sulphate 2% (w/v), bromophenol blue 0.02% (w/v)] containing DTT […] for 10 min. at 90 °C. Also 20 µg of lysates were resolved by sodium dodecyl sulphate polyacrylamide gel electrophoresis (SDS - PAGE) and transferred onto PVDF transfer membrane (EMD Millipore). Membranes were blocked with 5% non-fat milk and probed with primary antibodies for ERK and phospho-ERK (Cell Signaling). Anti-GAPDH was used as a loading control (Calbiochem).

SMILES | effect on ERK phosphorylation (Ras/BRAF pathway)
Cl.N=C(N)Nc1ccc(Oc2cccc(Nc3ccc(Cl)c(C(F)(F)F)c3)c2)cn1 [Compound 4, 1-(5-(3-((4-Chloro-3-(trifluoromethyl)phenyl)amino)phenoxy)pyridin-2-yl)guanidine hydrochloride] | do not appear to interfere with the Ras/BRAF signalling pathway; also recorded: do not act in the same way
Cl.Cl.N=C(N)Nc1ccc(Oc2cccc(NC(=N)Nc3ccc(Cl)c(C(F)(F)F)c3)c2)cn1 [Compound 2, 1-(4-Chloro-3-(trifluoromethyl)phenyl)-3-(3-((6-guanidinopyridin-3-yl)oxy)phenyl) guanidine dihydrochloride] | inhibiting ERK phosphorylation; also recorded: abrogates ERK activation
Cl.N=C(N)Nc1ccc(Oc2cccc(Nc3ccc(Cl)c(C(F)(F)F)c3)c2)cc1 [Compound 3, 1-(4-(3-((4-Chloro-3-(trifluoromethyl)phenyl)amino)phenoxy)phenyl)guanidine hydrochloride] | do not appear to interfere with the Ras/BRAF signalling pathway; also recorded: do not act in the same way
